From patent US9364479B2, “Use of a receptor-type kinase modulator for treating polycystic kidney disease” (SYMPHONY EVOLUTION, INC., priority 2010, dated 2016)
Marks after values point to notes of the source that are not given here.

How the values were obtained:
Adenosine, Non-selective = test: NovaScreen assay; assay type: binding
GABA-B = target: T1, GABA-B (Homo sapiens, UniProt Q9UBS5); test: NovaScreen assay; assay type: binding; conditions: read-out: Inhibition, 10 μM XL-647
T1 construct: NovaScreen

Sigma, Non-selective = test: NovaScreen assay; assay type: binding
[1] = tested on: Potassium Channel, ATP-Sensitive; test: NovaScreen assay; assay type: binding
[2] = tested on: Potassium Channel, Ca2+ Act., VI; test: NovaScreen assay; assay type: binding
[3] = target: T2, Thyrotropin Releasing Hormone, TRH (Homo sapiens, UniProt P34981); test: NovaScreen assay; assay type: binding; conditions: read-out: Inhibition, 10 μM XL-647
T2 construct: NovaScreen

EphB4 = target: T3, EphB4 (Homo sapiens, UniProt P54760); test: EphB4 autophosphorylation ELISA, EphB4/Hep3B cells; assay type: cell-based; conditions: read-out: Cellular IC50, autophosphorylation
T3 construct: expressed in transfected cells; host or cells: Hep3B
Method: The EphB4 autophosphorylation ELISA utilized EphB4/Hep3B cells. Cells were seeded at 2×10^4 cells/well onto 96-well microtiter plates (Costar 3904), in MEME (Cellgro) containing 10% FBS (Heat-Inactivated, Hyclone), 1% penicillin-streptomycin (Cellgro) and 450 μg/ml G418 (Invitrogen). The cells were then incubated at 37° C., 5% CO2 for 24 h. Growth media was replaced with serum-free MEME and cells were incubated for an additional 16 h. […] Negative control wells were not treated with growth factor. Following treatment, media was removed, the cell monolayer washed with cold PBS and immediately lysed with cold lysis buffer (50 mM Tris-HCl, pH 8.0, 200 mM NaCl, 0.5% NP-40, 0.2% sodium deoxcholate, 1 mM EDTA, 50 mM NaF, 1 mM sodium pyrophosphate, 1 mM sodium orthovanadate, 2 mM phenylmethylsulfonyl fluoride, 10 μg/ml aprotinin, 5 μg/ml leupeptin and 5 μg/ml pepstatin A). Lysates were centrifuged and incubated in blocked (1% BSA) high-binding 96-well plates (Costar 3925) coated with anti-mouse EphB4 (2.5 μg/ml, R&D Systems). Plates were then incubated with HRP-conjugated anti-phosphotyrosine cocktail (1:10,000, Zymed Laboratories, Inc) followed by the addition of a luminol-based substrate solution. Plates were read using a Victor spectrophotometer (Wallac).

A431 tumors = test: Immunohistochemical analysis of A431 tumors; assay type: in vivo, mouse; conditions: 14-day dosing
Method: (§1) For immunohistochemical analysis of H1975, MDA-MB-231 and other xenografts, tumors were excised after euthanasia and fixed in zinc fixative (BD Biosciences) for 48 h before being processed into paraffin blocks. Serial sections at 5 μm were obtained from the area of largest possible surface for each tumor and stained using standard methods. The following antibodies were used: Ki67 (SP6; Labvision), CD31 (MECA.32; BD Biosciences), pERK^Thr202/Tyr204 (phospho-p44/42 mitogen-activated protein kinase; Cell Signaling Technology), pAKT^Ser473 (Cell Signaling Technology), and pEGFR^Tyr1068 (Cell Signaling Technology). For immunofluorescent staining, sections were then incubated with Alexa 594-conjugated goat anti-rabbit secondary antibody (Invitrogen) and mounted in Fluorescent Mounting Medium (DAKO) containing 4′,6-diamidino-2-phenylindole (Molecular Probes) as a nuclear counterstain. Fluorescent staining was visualized using a Zeiss Axiolmager and digitally captured using a Zeiss high-resolution camera coupled to AxioVision image analysis software. Two to three nonoverlapping representative fields were captured at ×200 or ×400 magnification depending on histologic readout and quantified using the integrated morphometric analysis functions in Metamorph software (Universal Imaging Corp.). Apoptotic cells were detected using terminal deoxynucleotidyl transferase-mediated dUTP nick end labeling in situ cell death detection kit according to the manufacturer's instructions (Roche Diagnostics GmbH).
(§2) CD31-positive tumor vessels, Ki67-positive proliferating cells, and pERK staining in each tumor section were identified and quantified using the integrated morphometric analysis functions in the ACIS automatic cellular imaging system (Clarient, Inc.) and reviewed by a blinded observer. Number of CD31-positive vessels were identified across 5 to 10 randomly chosen fields of equal size at ×100 magnification in viable tumor tissue and calculated as number of vessels per square millimeter for each tumor, averaged for each treatment group, and compared with vehicle-treated controls. Percentage Ki67-positive cells were calculated as the ratio between Ki67-positive cells divided by the total number of cells identified across 5 to 10 randomly chosen fields of equal size in viable tumor tissue. The results for each tumor and treatment group were averaged and compared with vehicle-treated controls. The level of pERK staining was determined as described above and calculated as the ratio of antibody staining divided by the total number of cells identified, averaged for each treatment group, and compared with vehicle-treated controls.

[4] = tested on: Phospho ERK Thr203/Tyr204; test: Immunohistochemical analysis of phosphorylation in H1975 xenografts; assay type: in vivo, mouse; conditions: 14-day dosing
Method: as §1, §2
Results are presented as mean±SD or SE as indicated for each graph or table. For IC50 comparison in the A431 cell viability experiment, two sample Student's t tests were applied to determine P values for each IC50 pair assuming that the random fluctuations of replicates around the dose-response curve are distributed [log]normally with the individual replicates used as the ‘sample size’ for the t test (nine point dose response done in triplicate). For statistical analysis of immunohistochemical results from in vivo studies, two-tailed Student's t test analysis and Bonferroni correction were done to identify significant differences compared with vehicle control group (multiple use of a single vehicle control group) with a cumulative minimal requirement of P<0.05.

clinical = conditions: human, in vivo
EGFR L858R (pCMV/Lx-1) = EGFR L858R (pCMV/Lx-1) (Homo sapiens, UniProt P00533, L858R); test: EGFR phosphorylation ELISA in transfected Lx-1 cells
From the text: (§3) Lx-1 cells were used because they lack background EGFR activity. A clone corresponding to the longest EGFR isoform (Genbank accession no. NM_005228.3/NP_005219.2 #21-176, Upstate Biotechnology) was used as a template to produce two mutant EGFR genes (coding for L858R and L861Q) by site-directed mutagenesis. The WT and the two sequence-verified mutants were transferred to a COOH-terminal Flag-tagged retroviral cytomegalovirus promoter-driven mammalian expression vector. The two Tet-On expression vectors, EGFR WT (Tet-On) and EGFRvIII (Tet-On), which were COOH-terminally Flag tagged, were generously provided by Dr. Abhijit Guha (University of Toronto, Toronto, Ontario, Canada).
(§4) Transient transfections of Lx-1 cells were done using Lipofectamine 2000 (Invitrogen) according to the manufacturer's protocol. For transfections of the WT, L858R, and L861Q constructs, 1 μg plasmid DNA was used for each transfection (each well of a 12-well plate). […]
(§5) For the EGFR phosphorylation ELISA, Reacti-Bind streptavidin-coated plates (Pierce) were coated with 2 μg/mL biotin-conjugated anti-Flag antibody (Sigma). […] Horseradish peroxidase activity was determined by reading the plates in a Victor2 plate reader following addition of the ELISA Femto substrate.

EGFR L861Q (pCMV/Lx-1) = EGFR L861Q (pCMV/Lx-1) (Homo sapiens, UniProt P00533, L861Q); test: as above
Sequence of EGFR L861Q (pCMV/Lx-1) (P00533 25-1210 L861Q): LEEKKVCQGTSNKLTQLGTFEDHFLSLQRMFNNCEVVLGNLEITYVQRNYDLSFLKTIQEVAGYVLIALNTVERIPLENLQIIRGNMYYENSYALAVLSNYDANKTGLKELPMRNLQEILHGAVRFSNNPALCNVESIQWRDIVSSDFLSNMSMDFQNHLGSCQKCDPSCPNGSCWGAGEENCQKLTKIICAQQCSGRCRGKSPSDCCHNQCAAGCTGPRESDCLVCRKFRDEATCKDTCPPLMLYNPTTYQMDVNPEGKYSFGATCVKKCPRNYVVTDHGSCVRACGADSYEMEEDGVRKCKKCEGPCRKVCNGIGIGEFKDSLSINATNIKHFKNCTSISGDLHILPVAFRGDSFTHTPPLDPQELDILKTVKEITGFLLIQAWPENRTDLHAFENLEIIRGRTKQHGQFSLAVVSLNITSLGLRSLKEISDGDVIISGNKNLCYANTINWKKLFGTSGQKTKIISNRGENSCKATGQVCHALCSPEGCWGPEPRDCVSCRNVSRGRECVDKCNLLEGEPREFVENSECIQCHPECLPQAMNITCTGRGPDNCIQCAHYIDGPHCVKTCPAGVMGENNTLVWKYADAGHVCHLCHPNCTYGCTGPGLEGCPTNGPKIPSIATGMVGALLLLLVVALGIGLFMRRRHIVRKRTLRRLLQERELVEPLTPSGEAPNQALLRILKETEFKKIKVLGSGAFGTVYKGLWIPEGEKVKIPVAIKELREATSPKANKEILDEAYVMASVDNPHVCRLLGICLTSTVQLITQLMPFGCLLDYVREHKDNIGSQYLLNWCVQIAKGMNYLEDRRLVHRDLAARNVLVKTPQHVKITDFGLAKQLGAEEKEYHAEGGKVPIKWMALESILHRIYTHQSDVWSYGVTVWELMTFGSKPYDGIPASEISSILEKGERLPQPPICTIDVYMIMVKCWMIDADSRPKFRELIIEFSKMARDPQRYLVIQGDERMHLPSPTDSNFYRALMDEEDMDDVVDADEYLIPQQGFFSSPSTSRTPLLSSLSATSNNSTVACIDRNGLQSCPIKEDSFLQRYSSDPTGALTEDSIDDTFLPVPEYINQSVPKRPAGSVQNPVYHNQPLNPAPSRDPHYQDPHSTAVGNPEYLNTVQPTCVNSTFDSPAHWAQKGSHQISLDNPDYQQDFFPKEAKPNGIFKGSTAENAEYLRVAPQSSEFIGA
From the text: as §3, §4, §5

Sequence of EGFR L858R (pCMV/Lx-1) (P00533 25-1210 L858R): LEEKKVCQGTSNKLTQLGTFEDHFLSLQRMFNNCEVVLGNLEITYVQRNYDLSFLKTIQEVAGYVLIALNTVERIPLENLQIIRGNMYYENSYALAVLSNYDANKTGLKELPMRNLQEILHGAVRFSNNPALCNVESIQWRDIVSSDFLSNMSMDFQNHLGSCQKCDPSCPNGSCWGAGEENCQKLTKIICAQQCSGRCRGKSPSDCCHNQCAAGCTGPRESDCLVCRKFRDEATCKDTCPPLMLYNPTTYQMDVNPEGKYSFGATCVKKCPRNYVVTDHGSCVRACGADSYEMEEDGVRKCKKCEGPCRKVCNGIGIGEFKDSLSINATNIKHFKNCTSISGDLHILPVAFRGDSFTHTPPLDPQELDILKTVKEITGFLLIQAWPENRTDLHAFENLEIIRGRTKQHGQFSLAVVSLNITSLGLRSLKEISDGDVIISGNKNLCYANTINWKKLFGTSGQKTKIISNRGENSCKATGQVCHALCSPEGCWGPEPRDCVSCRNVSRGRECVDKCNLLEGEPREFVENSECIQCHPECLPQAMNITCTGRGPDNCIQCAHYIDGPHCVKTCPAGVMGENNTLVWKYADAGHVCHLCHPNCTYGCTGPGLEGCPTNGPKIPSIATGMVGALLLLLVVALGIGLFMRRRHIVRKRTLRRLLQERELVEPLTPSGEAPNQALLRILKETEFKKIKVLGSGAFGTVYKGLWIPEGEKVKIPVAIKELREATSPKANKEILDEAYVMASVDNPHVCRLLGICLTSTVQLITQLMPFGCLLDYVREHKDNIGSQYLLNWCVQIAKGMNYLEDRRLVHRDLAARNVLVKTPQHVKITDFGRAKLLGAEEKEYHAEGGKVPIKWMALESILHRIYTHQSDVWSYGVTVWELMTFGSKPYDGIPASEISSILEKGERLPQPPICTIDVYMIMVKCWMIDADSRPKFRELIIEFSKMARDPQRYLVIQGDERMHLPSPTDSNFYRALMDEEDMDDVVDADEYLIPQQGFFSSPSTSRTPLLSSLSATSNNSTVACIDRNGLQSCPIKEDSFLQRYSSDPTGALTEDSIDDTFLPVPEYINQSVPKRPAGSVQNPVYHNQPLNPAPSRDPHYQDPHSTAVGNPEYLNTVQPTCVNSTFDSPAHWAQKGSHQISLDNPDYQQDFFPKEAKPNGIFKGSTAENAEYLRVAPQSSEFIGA
T1 sequence (Q9UBS5 15-961 limits assumed): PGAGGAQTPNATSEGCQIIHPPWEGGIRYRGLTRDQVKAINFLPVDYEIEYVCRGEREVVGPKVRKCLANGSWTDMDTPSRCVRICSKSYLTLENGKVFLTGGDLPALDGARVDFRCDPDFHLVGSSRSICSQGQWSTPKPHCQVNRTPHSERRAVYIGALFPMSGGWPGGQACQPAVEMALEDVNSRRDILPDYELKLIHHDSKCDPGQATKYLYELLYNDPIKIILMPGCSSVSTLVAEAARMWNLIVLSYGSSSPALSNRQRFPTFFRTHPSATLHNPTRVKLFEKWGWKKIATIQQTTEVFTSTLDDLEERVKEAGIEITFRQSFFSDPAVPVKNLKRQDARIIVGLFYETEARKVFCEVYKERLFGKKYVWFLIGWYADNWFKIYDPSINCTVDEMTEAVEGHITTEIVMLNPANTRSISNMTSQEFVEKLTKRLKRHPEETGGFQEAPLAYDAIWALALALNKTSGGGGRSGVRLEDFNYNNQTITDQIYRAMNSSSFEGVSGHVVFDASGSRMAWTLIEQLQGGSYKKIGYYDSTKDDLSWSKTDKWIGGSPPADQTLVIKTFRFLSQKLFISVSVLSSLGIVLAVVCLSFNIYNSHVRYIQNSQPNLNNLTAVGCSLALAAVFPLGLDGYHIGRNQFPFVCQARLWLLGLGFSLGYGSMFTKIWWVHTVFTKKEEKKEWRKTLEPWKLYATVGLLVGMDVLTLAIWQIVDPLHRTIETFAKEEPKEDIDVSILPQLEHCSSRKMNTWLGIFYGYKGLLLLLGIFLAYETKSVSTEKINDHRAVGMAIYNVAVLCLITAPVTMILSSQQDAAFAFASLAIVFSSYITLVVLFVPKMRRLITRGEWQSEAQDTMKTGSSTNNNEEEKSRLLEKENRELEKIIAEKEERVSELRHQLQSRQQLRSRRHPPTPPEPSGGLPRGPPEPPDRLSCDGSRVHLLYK
T1 sequence (O75899 42-941 partner): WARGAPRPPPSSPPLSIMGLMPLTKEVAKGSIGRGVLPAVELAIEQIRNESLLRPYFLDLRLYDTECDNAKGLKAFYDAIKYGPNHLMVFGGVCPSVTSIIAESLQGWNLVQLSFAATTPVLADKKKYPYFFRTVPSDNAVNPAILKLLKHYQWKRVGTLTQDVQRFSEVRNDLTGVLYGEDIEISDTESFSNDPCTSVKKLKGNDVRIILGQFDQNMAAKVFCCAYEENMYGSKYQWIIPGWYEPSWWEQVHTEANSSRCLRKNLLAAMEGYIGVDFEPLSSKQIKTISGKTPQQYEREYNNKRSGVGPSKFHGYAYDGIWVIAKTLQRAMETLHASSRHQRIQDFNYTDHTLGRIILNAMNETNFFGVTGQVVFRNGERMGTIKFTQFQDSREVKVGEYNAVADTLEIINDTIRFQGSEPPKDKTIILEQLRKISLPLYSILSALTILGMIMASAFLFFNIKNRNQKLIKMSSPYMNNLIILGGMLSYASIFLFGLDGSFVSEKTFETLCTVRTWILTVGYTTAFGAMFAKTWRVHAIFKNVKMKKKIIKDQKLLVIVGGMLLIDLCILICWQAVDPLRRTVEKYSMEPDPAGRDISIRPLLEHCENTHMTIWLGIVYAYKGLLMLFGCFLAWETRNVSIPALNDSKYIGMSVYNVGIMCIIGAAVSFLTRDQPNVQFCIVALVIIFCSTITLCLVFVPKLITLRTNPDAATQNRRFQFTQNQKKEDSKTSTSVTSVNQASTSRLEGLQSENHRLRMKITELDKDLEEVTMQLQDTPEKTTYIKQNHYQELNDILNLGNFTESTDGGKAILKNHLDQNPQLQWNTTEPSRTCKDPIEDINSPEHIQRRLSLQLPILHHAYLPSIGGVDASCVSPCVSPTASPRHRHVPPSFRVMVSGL
T2 sequence (P34981 whole entry): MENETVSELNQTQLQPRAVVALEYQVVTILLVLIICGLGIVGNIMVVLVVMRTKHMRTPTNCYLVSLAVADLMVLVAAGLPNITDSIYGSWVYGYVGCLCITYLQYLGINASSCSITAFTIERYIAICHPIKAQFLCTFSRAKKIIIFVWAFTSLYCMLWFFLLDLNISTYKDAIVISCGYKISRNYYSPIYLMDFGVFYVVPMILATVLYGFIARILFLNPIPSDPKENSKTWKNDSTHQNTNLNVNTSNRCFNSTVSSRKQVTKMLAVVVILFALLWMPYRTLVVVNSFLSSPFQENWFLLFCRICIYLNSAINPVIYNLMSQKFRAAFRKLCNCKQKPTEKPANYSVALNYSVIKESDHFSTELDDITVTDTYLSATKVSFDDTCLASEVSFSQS

## COc1cc2c(Nc3ccc(Cl)c(Cl)c3F)ncnc2cc1OC[C@@H]1C[C@@H]2CN(C)C[C@@H]2C1 [XL-647, N-(3,4-dichloro-2-fluorophenyl)-7-({[(3aR,5r,6aS)-2-methyloctahydrocyclopenta[c]pyrrol-5-yl]methyl}oxy)-6-(methyloxy)quinazolin-4-amine]
Adenosine, Non-selective
  Inhibition, 10 μM XL-647: 47.89%
GABA-B
  inhibition at 10 µM: -1.19%
Sigma, Non-selective
  Inhibition, 10 μM XL-647: 50.90%
[1]
  Inhibition, 10 μM XL-647: 5.02%
[2]
  Inhibition, 10 μM XL-647: 17.02%
[3]
  inhibition at 10 µM: 4.59%
EphB4
  IC50: 3 nM
A431 tumors; 10 mg/kg
  CD31 Analysis % Reduction: 33.5%
  CD31 Analysis MVC: 18.6
  Ki67 Expression % Reduction: 53.3%
  Ki67 Expression % of Cells: 17.6%
  Necrosis % Increase: 20.7%
A431 tumors; 30 mg/kg
  CD31 Analysis % Reduction: 43.2%
  CD31 Analysis MVC: 15.9
  Ki67 Expression % Reduction: 67.2%
  Ki67 Expression % of Cells: 12.3%
  Necrosis % Increase: 26.5%
A431 tumors; 100 mg/kg
  CD31 Analysis % Reduction: 87.3%
  CD31 Analysis MVC: 3.6
  Ki67 Expression % Reduction: 82.6%
  Ki67 Expression % of Cells: 6.5%
  Necrosis % Increase: 61.7%
[4]; 10 mg/kg
  Phospho ERK Thr203/Tyr204 % Cells: 20 ± 4.3%
  Phospho ERK Thr203/Tyr204 % Reduction: 11.8%
[4]; 30 mg/kg
  Phospho ERK Thr203/Tyr204 % Cells: 13 ± 4.9%
  Phospho ERK Thr203/Tyr204 % Reduction: 41.8^a %
[4]; 100 mg/kg
  Phospho ERK Thr203/Tyr204 % Cells: 10 ± 3.7%
  Phospho ERK Thr203/Tyr204 % Reduction: 57.1^a %
clinical
  half-life: ~60 h
clinical; po
  Tmax: ~4 h
EGFR L858R (pCMV/Lx-1)
  IC50: 5 nM
EGFR L861Q (pCMV/Lx-1)
  IC50: 10 nM
